Assay results: patent publication US10633386B2, “BET protein degraders” (THE REGENTS OF THE UNIVERSITY OF MICHIGAN, priority 2016, dated 2020)
Where two headings read alike, the source gives them in different places.

Tests used:
Assay type in all cases: cell-based
[1] = system: SW620; experiment: Cell growth inhibition (CellTiter-Glo), colon cancer line SW620
Method: (§1) Cell growth inhibitory activity of representative BET bromodomain degraders in representative non-small cell lung cancer cell lines was determined using the CellTiter-Glo® Luminescent Cell Viability Assay. Cells were seeded in 384-well white opaque cell culture plates at a density of 2,000 cells/well with serially diluted compounds and incubated at 37° C. in an atmosphere of 95% air and 5% CO2 for 4 days. Cell viability was determined using the CellTiter-Glo® Luminescent Cell Viability Assay Kit (Promega, Madison, Wis.) according to the manufacture's instruction. Briefly, a volume of CellTiter-Glo® Reagent equal to the volume of cell culture medium was added to each well, and then the plates were incubated at room temperature for 10-20 minutes. The luminescent signal was measured using a Tecan Infinite M1000 multimode microplate reader (Tecan, Morrisville, N.C.). The half maximal inhibitory concentration (IC50) was calculated using the GraphPad Prism 5 software (GraphPad Software, La Jolla, Calif.). Cpd. A is a BET bromodomain inhibitor, see U.S. Appl. No. 62/121,637, having the following structure:
(§2) Cell growth inhibitory activity of representative BET bromodomain degraders in representative colon cancer cell lines, see Table 7, was determined as described in Example 17.

[2] = system: Lovo; experiment: Cell growth inhibition (CellTiter-Glo), colon cancer line Lovo
Method: as §1, §2

[3] = system: H460; experiment: Cell growth inhibition (CellTiter-Glo), NSCLC line H460; details: H460 non-small cell lung cancer cell line, 4 days
Method: as §1, with “Appl.” for “Appl. No. 62/121,637, having the following structure:”

[4] = system: H2009; experiment: Cell growth inhibition (CellTiter-Glo), NSCLC line H2009; details: H2009 non-small cell lung cancer cell line, 4 days
Method: as §1, with “Appl.” for “Appl. No. 62/121,637, having the following structure:”

[5] = system: HCC1428; experiment: Cell growth inhibition (CellTiter-Glo), breast cancer line HCC1428; details: 4 days
Method: (§3) Cell growth inhibitory activity of representative BET bromodomain degraders in representative breast cancer cell lines was determined using the CellTiter-Glo® Luminescent Cell Viability Assay. SUM-52 and SUM-159 cell lines were established at the University of Michigan Comprehensive Cancer Center. All the other breast cancer cell lines were obtained from the ATCC (Manassas, Va.). Cells were seeded in 384-well cell culture plates at a density of 1,000-2,500 cells/well with serially diluted compounds and incubated at 37° C. in an atmosphere of 95% air and 5% CO2 for 4 days. Cell viability was determined using the CellTiter-Glo® Luminescent Cell Viability Assay Kit (Promega, Madison, Wis.) according to the manufacture's instruction. Briefly, a volume of CellTiter-Glo® Reagent equal to the volume of cell culture medium was added to each well, and then the plates were incubated at room temperature for 20-60 minutes. The luminescent signal was measured using a Tecan Infinite M1000 multimode microplate reader (Tecan, Morrisville, N.C.). The half maximal inhibitory concentration (IC50) was calculated using the GraphPad Prism 5 software (GraphPad Software, La Jolla, Calif.). “Thd” is thalidomide.

[6] = system: MDA-MB-468; experiment: Cell growth inhibition (CellTiter-Glo), breast cancer line MDA-MB-468; details: MDA-MB-468 breast cancer cell line, 4 days
Method: as §3

[7] = system: SW48; experiment: Cell growth inhibition (CellTiter-Glo), colon cancer line SW48
Method: as §1, §2

[8] = system: H2030; experiment: Cell growth inhibition (CellTiter-Glo), NSCLC line H2030; details: H2030 non-small cell lung cancer cell line, 4 days
Method: as §1, with “Appl.” for “Appl. No. 62/121,637, having the following structure:”

[9] = system: SW948; experiment: Cell growth inhibition (CellTiter-Glo), colon cancer line SW948
Method: as §1, §2

[10] = system: H2444; experiment: Cell growth inhibition (CellTiter-Glo), NSCLC line H2444; details: H2444 non-small cell lung cancer cell line, 4 days
Method: as §1, with “Appl.” for “Appl. No. 62/121,637, having the following structure:”

[11] = system: LS123; experiment: Cell growth inhibition (CellTiter-Glo), colon cancer line LS123
Method: as §1, §2

[12] = system: H1437; experiment: Cell growth inhibition (CellTiter-Glo), NSCLC line H1437; details: H1437 non-small cell lung cancer cell line, 4 days
Method: as §1, with “Appl.” for “Appl. No. 62/121,637, having the following structure:”

[13] = system: HCC1187; experiment: Cell growth inhibition (CellTiter-Glo), breast cancer line HCC1187; details: 4 days
Method: as §3

[14] = system: BT-20; experiment: Cell growth inhibition (CellTiter-Glo), breast cancer line BT-20; details: BT-20 breast cancer cell line, 4 days
Method: as §3

[15] = system: HBL-100; experiment: Cell growth inhibition (CellTiter-Glo), breast cancer line HBL-100; details: HBL-100 breast cancer cell line, 4 days
Method: as §3

[16] = system: HCC1937; experiment: Cell growth inhibition (CellTiter-Glo), breast cancer line HCC1937; details: 4 days
Method: as §3

[17] = system: HCC1395; experiment: Cell growth inhibition (CellTiter-Glo), breast cancer line HCC1395; details: 4 days
Method: as §3

[18] = system: H1648; experiment: Cell growth inhibition (CellTiter-Glo), NSCLC line H1648; details: H1648 non-small cell lung cancer cell line, 4 days
Method: as §1, with “Appl.” for “Appl. No. 62/121,637, having the following structure:”

[19] = system: HT-29; experiment: Cell growth inhibition (CellTiter-Glo), colon cancer line HT-29; details: HT-29 colon cancer cell line
Method: as §1, §2

[20] = system: LS1034; experiment: Cell growth inhibition (CellTiter-Glo), colon cancer line LS1034
Method: as §1, §2

[21] = system: H520; experiment: Cell growth inhibition (CellTiter-Glo), NSCLC line H520; details: H520 non-small cell lung cancer cell line, 4 days
Method: as §1, with “Appl.” for “Appl. No. 62/121,637, having the following structure:”

[22] = system: SKLU-1; experiment: Cell growth inhibition (CellTiter-Glo), NSCLC line SKLU-1; details: SKLU-1 non-small cell lung cancer cell line, 4 days
Method: as §1, with “Appl.” for “Appl. No. 62/121,637, having the following structure:”

[23] = system: H1869; experiment: Cell growth inhibition (CellTiter-Glo), NSCLC line H1869; details: H1869 non-small cell lung cancer cell line, 4 days
Method: as §1, with “Appl.” for “Appl. No. 62/121,637, having the following structure:”

Cc1sc2c(c1C)C(c1ccc(Cl)cc1)=N[C@@H](CC(=O)NCCCCNC(=O)COc1cccc3c1C(=O)N(C1CCC(=O)NC1=O)C3=O)c1nnc(C)n1-2 (stereo partly shown) [dBET1, reference compound]
IC50 [1]: > 5000 nM
IC50 [2]: > 5000 nM
IC50 [3]: > 5000 nM
IC50 [4]: > 5000 nM
IC50 [5]: > 5000 nM
IC50 [6]: 1390 nM
IC50 [7]: 2780 nM
IC50 [8]: > 5000 nM
IC50 [9]: > 5000 nM
IC50 [10]: 3000 nM
IC50 [11]: > 5000 nM
IC50 [12]: > 5000 nM
IC50 [13]: > 5000 nM
IC50 [14]: > 5000 nM
IC50 [15]: > 5000 nM
IC50 [16]: > 5000 nM
IC50 [17]: > 5000 nM
IC50 [18]: > 5000 nM
IC50 [19]: > 5000 nM
IC50 [20]: > 5000 nM
IC50 [21]: 4200 nM
IC50 [22]: > 5000 nM
IC50 [23]: > 5000 nM

CCn1nc(C2CC2)cc1Nc1nc(C(=O)NCCCCNc2cccc3c2C(=O)N(C2CCC(=O)NC2=O)C3=O)nc2[nH]c3cc(-c4c(C)noc4C)c(OC)cc3c12 (stereo not shown) [Cpd. No. 9]
IC50 ([1]; Homo sapiens, SW-620): 1040 ± 1040 nM
IC50 ([2]; Homo sapiens): 46 ± 49 nM
IC50 ([3]; Homo sapiens, NCI-H460, 96 h): 51000 nM
IC50 ([4]; Homo sapiens, NCI-H2009, 96 h): 34 nM
IC50 ([7]; Homo sapiens): 8 nM
IC50 ([8]; Homo sapiens, NCI-H2030, 96 h): 269 nM
IC50 ([9]; Homo sapiens): 1000 ± 1070 nM
IC50 ([10]; Homo sapiens, NCI-H2444, 96 h): 28 nM
IC50 ([11]; Homo sapiens, LS-123): 74 ± 50 nM
IC50 ([12]; Homo sapiens, NCI-H1437, 96 h): 818 nM
IC50 ([18]; Homo sapiens, NCI-H1648, 96 h): 22 nM
IC50 ([19]; Homo sapiens): 48 ± 2 nM
IC50 ([20]; Homo sapiens, LS-1034): 368 ± 170 nM
IC50 ([21]; Homo sapiens, NCI-H520, 96 h): 11 nM
IC50 ([22]; Homo sapiens, SK-LU-1, 96 h): 11 nM
IC50 ([23]; 96 h): 93 nM

CCn1nc(C2CC2)cc1Nc1nc(COC)nc2[nH]c3cc(-c4c(C)noc4C)c(OC)cc3c12 [Cpd. A, reference compound]
IC50 ([1]; Homo sapiens, SW-620): > 2500 nM
IC50 ([2]; Homo sapiens): 44 ± 17 nM
IC50 ([3]; Homo sapiens, NCI-H460, 96 h): 1790 nM
IC50 ([4]; Homo sapiens, NCI-H2009, 96 h): 170 nM
IC50 ([5]; Homo sapiens, 96 h): 50 nM
IC50 ([6]; Homo sapiens, 96 h): 510 nM
IC50 ([7]; Homo sapiens): 45.7 nM
IC50 ([8]; Homo sapiens, NCI-H2030, 96 h): 110 nM
IC50 ([9]; Homo sapiens): > 2500 nM
IC50 ([10]; Homo sapiens, NCI-H2444, 96 h): 2720 nM
IC50 ([11]; Homo sapiens, LS-123): 739 ± 680 nM
IC50 ([12]; Homo sapiens, NCI-H1437, 96 h): 140 nM
IC50 ([13]; Homo sapiens, 96 h): 960 nM
IC50 ([14]; Homo sapiens, 96 h): 2410 nM
IC50 ([15]; Homo sapiens, 96 h): 100 nM
IC50 ([16]; Homo sapiens, 96 h): > 5000 nM
IC50 ([17]; Homo sapiens, 96 h): 1050 nM
IC50 ([18]; Homo sapiens, NCI-H1648, 96 h): 140 nM
IC50 ([19]; Homo sapiens): 69 ± 1 nM
IC50 ([20]; Homo sapiens, LS-1034): 455 ± 430 nM
IC50 ([21]; Homo sapiens, NCI-H520, 96 h): 280 nM
IC50 ([22]; Homo sapiens, SK-LU-1, 96 h): 40 nM
IC50 ([23]; 96 h): 60 nM

CCn1nc(C2CC2)cc1Nc1nc(C(=O)NCCCOCCOCCOCCCNc2cccc3c2C(=O)N(C2CCC(=O)NC2=O)C3=O)nc2[nH]c3cc(-c4c(C)noc4C)c(OC)cc3c12 (stereo not shown) [Cpd. No. 4]
IC50 ([1]; Homo sapiens, SW-620): 38 ± 5 nM
IC50 ([2]; Homo sapiens): 13 ± 14 nM
IC50 ([3]; Homo sapiens, NCI-H460, 96 h): 505 nM
IC50 ([4]; Homo sapiens, NCI-H2009, 96 h): 16 nM
IC50 ([5]; Homo sapiens, 96 h): 13 nM
IC50 ([6]; Homo sapiens, 96 h): 2 nM
IC50 ([7]; Homo sapiens): 6 nM
IC50 ([8]; Homo sapiens, NCI-H2030, 96 h): 137 nM
IC50 ([9]; Homo sapiens): 197 ± 160 nM
IC50 ([10]; Homo sapiens, NCI-H2444, 96 h): 4 nM
IC50 ([11]; Homo sapiens, LS-123): 11 ± 10 nM
IC50 ([12]; Homo sapiens, NCI-H1437, 96 h): 329 nM
IC50 ([13]; Homo sapiens, 96 h): 3 nM
IC50 ([14]; Homo sapiens, 96 h): 25 nM
IC50 ([15]; Homo sapiens, 96 h): 4 nM
IC50 ([16]; Homo sapiens, 96 h): 8 nM
IC50 ([17]; Homo sapiens, 96 h): 277 nM
IC50 ([18]; Homo sapiens, NCI-H1648, 96 h): 5 nM
IC50 ([19]; Homo sapiens): 32 ± 20 nM
IC50 ([20]; Homo sapiens, LS-1034): 97 ± 20 nM
IC50 ([21]; Homo sapiens, NCI-H520, 96 h): 3 nM
IC50 ([22]; Homo sapiens, SK-LU-1, 96 h): 3 nM
IC50 ([23]; 96 h): 9 nM
